Broadly, the Ki is a dissociation constant, usually derived from enzyme kinetics or from competition with a known ligand.

SMILES strings stand for the structures. Where only a bound is given, the exact number is not on record here.

This assay has as its target T1, Thymidine phosphorylase (Homo sapiens, UniProt P19971).
T1 sequence (P19971 whole entry): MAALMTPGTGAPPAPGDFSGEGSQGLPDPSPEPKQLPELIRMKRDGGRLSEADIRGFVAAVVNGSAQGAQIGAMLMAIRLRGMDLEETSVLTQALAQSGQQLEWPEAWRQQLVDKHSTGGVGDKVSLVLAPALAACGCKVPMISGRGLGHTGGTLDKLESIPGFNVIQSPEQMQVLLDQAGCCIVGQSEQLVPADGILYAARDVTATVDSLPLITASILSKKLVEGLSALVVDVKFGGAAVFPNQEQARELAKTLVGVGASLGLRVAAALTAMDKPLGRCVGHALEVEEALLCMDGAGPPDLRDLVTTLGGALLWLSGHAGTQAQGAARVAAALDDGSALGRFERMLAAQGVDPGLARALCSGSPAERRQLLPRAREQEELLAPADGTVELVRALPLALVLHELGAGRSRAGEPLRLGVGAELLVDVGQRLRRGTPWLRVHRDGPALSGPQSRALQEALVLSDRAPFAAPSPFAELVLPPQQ
The assay can be described thus: Binding affinity towards recombinant thymidine phosphorylase TP.
`Nc1csc2c(=O)[nH]c(=O)[nH]c12`: the Ki is greater than 600 µM. For the molecule `N=C(N)Nc1cc2[nH]c(=O)[nH]c(=O)c2s1`, the Ki was greater than 2400 µM. Consider `Nc1cc2[nH]c(=O)[nH]c(=O)c2s1`, for which the inhibition constant Ki was greater than 300 µM.

For the origin of these results see ChEMBL document CHEMBL1136409, “Design of novel N-(2,4-dioxo-1,2,3,4-tetrahydro-thieno[3,2-d]pyrimidin-7-yl)-guanidines as thymidine phosphorylase inhibitors, and flexible docking to a homology model” (Bioorg Med Chem Lett, 2003).
